Assay results: PubChem BioAssay (NCI)
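Following 48 hours of exposure in 96-well plates, responses at five concentrations were used to interpolate endpoints linearly. GI50: concentration for 50% inhibition of growth. The concentration for full growth arrest is given as TGI.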

Legend:
Test in all cases: NCI-60 cell line screen, 48 h
RXF 393 renal = test system: RXF 393 renal
M14 melanoma = test system: M14 melanoma
UACC-257 melanoma = test system: UACC-257 melanoma
SN12C renal = test system: SN12C renal
HCT-15 colon = test system: HCT-15 colon
CAKI-1 renal = test system: CAKI-1 renal
786-0 renal = test system: 786-0 renal
RPMI-8226 leukemia = test system: RPMI-8226 leukemia
NCI-H226 lung = test system: NCI-H226 lung
SK-MEL-5 melanoma = test system: SK-MEL-5 melanoma
OVCAR-8 ovarian = test system: OVCAR-8 ovarian
OVCAR-5 ovarian = test system: OVCAR-5 ovarian
PC-3 prostate = test system: PC-3 prostate
SF-295 CNS = test system: SF-295 CNS
NCI-H460 lung = test system: NCI-H460 lung
NCI-H522 lung = test system: NCI-H522 lung
IGROV1 ovarian = test system: IGROV1 ovarian
SR leukemia = test system: SR leukemia
UACC-62 melanoma = test system: UACC-62 melanoma
NCI-H23 lung = test system: NCI-H23 lung
K-562 leukemia = test system: K-562 leukemia
SF-268 CNS = test system: SF-268 CNS
MOLT-4 leukemia = test system: MOLT-4 leukemia
HOP-62 NSCLC = test system: HOP-62 NSCLC
U251 CNS = test system: U251 CNS
TK-10 renal = test system: TK-10 renal
HT29 colon = test system: HT29 colon
HCT-116 colon = test system: HCT-116 colon
BT-549 breast = test system: BT-549 breast
SK-MEL-2 melanoma = test system: SK-MEL-2 melanoma
HOP-92 NSCLC = test system: HOP-92 NSCLC
OVCAR-3 ovarian = test system: OVCAR-3 ovarian
CCRF-CEM leukemia = test system: CCRF-CEM leukemia
SK-OV-3 ovarian = test system: SK-OV-3 ovarian
HL-60(TB) leukemia = test system: HL-60(TB) leukemia
MDA-MB-231 breast = test system: MDA-MB-231 breast
SNB-19 CNS = test system: SNB-19 CNS
OVCAR-4 ovarian = test system: OVCAR-4 ovarian
SW-620 colon = test system: SW-620 colon
MCF7 breast = test system: MCF7 breast
T-47D breast = test system: T-47D breast
LOX IMVI melanoma = test system: LOX IMVI melanoma
EKVX NSCLC = test system: EKVX NSCLC
HCC-2998 colon = test system: HCC-2998 colon
A549 NSCLC = test system: A549 NSCLC
DU-145 prostate = test system: DU-145 prostate
NCI/ADR-RES ovarian = test system: NCI/ADR-RES ovarian

Structure (SMILES): COc1cc2c(cc1O)CCN[C@]21CS[C@@H]2c3c(OC(C)=O)c(C)c4c(c3[C@H](COC1=O)N1[C@@H]2[C@H]2c3c(cc(C)c(OC)c3O)C[C@@H]([C@@H]1O)N2C)OCO4
- TGI (RXF 393 renal): 0.00401 µM
- TGI (M14 melanoma): 0.00383 µM
- TGI (UACC-257 melanoma): 0.00557 µM
- TGI (SN12C renal): 3.9 µM
- GI50 (HCT-15 colon): 0.00379 µM
- TGI (HCT-15 colon): 0.361 µM
- TGI (CAKI-1 renal): 1.36 µM
- TGI (786-0 renal): 0.948 µM
- TGI (RPMI-8226 leukemia): 0.00529 µM
- GI50 (NCI-H226 lung): 0.00313 µM
- TGI (NCI-H226 lung): 0.00582 µM
- TGI (SK-MEL-5 melanoma): 0.00433 µM
- TGI (OVCAR-8 ovarian): 4.83 µM
- TGI (OVCAR-5 ovarian): 1.19 µM
- GI50 (PC-3 prostate): 0.00279 µM
- TGI (PC-3 prostate): 0.119 µM
- TGI (SF-295 CNS): 1.01 µM
- TGI (NCI-H460 lung): 0.808 µM
- TGI (NCI-H522 lung): 0.00746 µM
- GI50 (IGROV1 ovarian): 0.00257 µM
- TGI (IGROV1 ovarian): 1.96 µM
- TGI (SR leukemia): 10.5 µM
- TGI (UACC-62 melanoma): 0.00403 µM
- TGI (NCI-H23 lung): 0.0057 µM
- TGI (K-562 leukemia): 7.98 µM
- TGI (SF-268 CNS): 0.0486 µM
- TGI (MOLT-4 leukemia): 8.76 µM
- TGI (HOP-62 NSCLC): 0.252 µM
- TGI (U251 CNS): 1.02 µM
- GI50 (TK-10 renal): 0.00331 µM
- TGI (TK-10 renal): 3.54 µM
- TGI (HT29 colon): 2.52 µM
- TGI (HCT-116 colon): 2.94 µM
- TGI (BT-549 breast): 0.00612 µM
- GI50 (SK-MEL-2 melanoma): 0.0031 µM
- TGI (SK-MEL-2 melanoma): 0.00511 µM
- GI50 (HOP-92 NSCLC): 0.00273 µM
- TGI (HOP-92 NSCLC): 0.0518 µM
- TGI (OVCAR-3 ovarian): 0.0057 µM
- TGI (CCRF-CEM leukemia): 3.11 µM
- GI50 (SK-OV-3 ovarian): 0.00309 µM
- TGI (SK-OV-3 ovarian): 3.99 µM
- TGI (HL-60(TB) leukemia): 0.0114 µM
- TGI (MDA-MB-231 breast): 0.0199 µM
- TGI (SNB-19 CNS): 1.39 µM
- TGI (OVCAR-4 ovarian): 0.0718 µM
- TGI (SW-620 colon): 0.13 µM
- TGI (MCF7 breast): 0.979 µM
- TGI (T-47D breast): 3.02 µM
- TGI (LOX IMVI melanoma): 0.262 µM
- GI50 (EKVX NSCLC): 0.00467 µM
- TGI (EKVX NSCLC): 0.0459 µM
- GI50 (HCC-2998 colon): 0.00352 µM
- TGI (HCC-2998 colon): 0.00652 µM
- GI50 (A549 NSCLC): 0.00319 µM
- TGI (A549 NSCLC): 2.83 µM
- TGI (DU-145 prostate): 1 µM
- GI50 (NCI/ADR-RES ovarian): 0.00591 µM
- TGI (NCI/ADR-RES ovarian): 2.61 µM
